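Cells were grown in 96-well plates and exposed to each compound for 48 hours at five concentrations; endpoints were interpolated linearly between bracketing concentrations, or set to the highest concentration if not reached. TGI: total growth inhibition.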
Key:
Assay in all cases: NCI tumour cell line growth inhibition, 48 h
[1] = test system: RXF-631 renal
[2] = test system: OVCAR-3 ovarian
[3] = test system: CAKI-1 renal
[4] = test system: HT29 colon
[5] = test system: OVCAR-5 ovarian
[6] = test system: NCI-H23 lung
[7] = test system: K-562 leukemia
[8] = test system: HCT-15 colon
[9] = test system: HL-60(TB) leukemia
[10] = test system: KM20L2 colon
[11] = test system: EKVX NSCLC
[12] = test system: HCC-2998 colon
[13] = test system: SF-268 CNS
[14] = test system: SK-MEL-28 melanoma
[15] = test system: UACC-62 melanoma
[16] = test system: A549 NSCLC
[17] = test system: MOLT-4 leukemia
[18] = test system: UO-31 renal
[19] = test system: A498 renal
[20] = test system: NCI-H226 lung
[21] = test system: SK-MEL-5 melanoma
[22] = test system: SK-MEL-2 melanoma
[23] = test system: SW-620 colon
[24] = test system: ACHN renal
[25] = test system: IGROV1 ovarian
[26] = test system: UACC-257 melanoma
[27] = test system: OVCAR-8 ovarian
[28] = test system: XF 498 CNS
[29] = test system: NCI-H460 lung
[30] = test system: HOP-92 NSCLC
[31] = test system: DMS 273 small cell lung
[32] = test system: TK-10 renal
[33] = test system: SNB-78 CNS
[34] = test system: M19-MEL melanoma
[35] = test system: RXF 393 renal
[36] = test system: HCT-116 colon
[37] = test system: CCRF-CEM leukemia
[38] = test system: LXFL 529 NSCLC
[39] = test system: SR leukemia
[40] = test system: SN12C renal
[41] = test system: LOX IMVI melanoma
[42] = test system: SF-295 CNS
[43] = test system: M14 melanoma
[44] = test system: SF-539 CNS
[45] = test system: SK-OV-3 ovarian
[46] = test system: SNB-19 CNS
[47] = test system: HOP-62 NSCLC
[48] = test system: NCI-H522 lung
[49] = test system: KM12 colon
[50] = test system: DLD-1 colon
[51] = test system: U251 CNS
[52] = test system: RPMI-8226 leukemia
[53] = test system: OVCAR-4 ovarian
[54] = test system: MALME-3M melanoma
[55] = test system: SNB-75 CNS
[56] = test system: COLO 205 colon
[57] = test system: 786-0 renal
[58] = test system: DMS 114 small cell lung
[59] = test system: HOP-18 NSCLC

Measured: TGI

CCO/N=[N+](\[O-])N(CC)CC
not listed: [50] | [51] | [52] | [53] | [54] | [55] | [56] | [57] | [58] | [59]
> 100 µM: all other assays above

CCOC(=O)NN1C(=O)C(=P(c2ccccc2)(c2ccccc2)c2ccccc2)C(C(=O)OCC)=C1C
not listed: [14] | [58] | [59]
> 100 µM: all other assays above

N#C/C(=C\c1cccc(O)c1)C(N)=O
43.5 µM: [9]
95.4 µM: [55]
not listed: [39] | [59]
> 100 µM: all other assays above

Cc1ccc(NC(=O)/C(=N\Nc2ccc([N+](=O)[O-])cc2[N+](=O)[O-])C2C(=O)NC(=O)NC2=O)cc1
90.9 µM: [44]
97.6 µM: [15]
not listed: [11] | [12] | [17] | [22] | [28] | [31]
> 100 µM: all other assays above

— PubChem BioAssay (NCI)
